Article PMC6687188, “Novel lactate dehydrogenase inhibitors with in vivo efficacy against Cryptosporidium parvum” (PLoS Pathogens, 2019)
Positions of bridges follow the written chain, without caps; N, C: chain ends. Non-standard residues stand in square brackets, D forms with d. Residues, ends and D or L forms follow the SMILES beside them. ξ: configuration not given here. *: point of attachment. ξNMePhe(4-NMe2) = CNC(Cc1ccc(N(C)C)cc1)C(=O)O; Picolinoyl(3-OH) = O=C(c1ncccc1O)*; ξPip(4-oxo) = O=C1CCNC(C(=O)O)C1; Phg = N[CH](C(=O)O)c1ccccc1; Cbz = O=C(OCc1ccccc1)*; Abu = CC[CH](N)C(=O)O; CH2Cl = ClC*

Target: recombinant CpLDH protein (Cryptosporidium parvum, UniProt Q9GT92, F198L/K295E/R251K)

SMILES | MEAN CpLDH INHIBITION (%)
O=[N+]([O-])c1ccc2c(c1)/C(=N/N=C1c3ccccc3Cc3ccccc31)c1cc([N+](=O)[O-])cc([N+](=O)[O-])c1-2 [NSC658139] | -4.51
COC(=O)C(=O)C(C(=O)Nc1cccc(C)c1C)C1Sc2ccccc2NC1=O (centres unmarked) [NSC635833] | -26.59
Cc1[nH]c(=O)[nH]c(=O)c1/C=C/C(=O)NC(CO)CC(C)C (centres unmarked) [NSC224117] | -0.81
CC(=O)[O][Hg].c1ccc2c(c1)ccc1ccccc12 [NSC534] | -63.87
CCCCC(/C=N/N=C(N)N)CC.Cc1cc(O)c(C(C)C)cc1S(=O)(=O)O [NSC66300] | -42.12
CC1=C/C(=C2/N=C(N(C)C)SS2)C(C)=N1.[O-][Cl+3]([O-])([O-])O [NSC622690] | -0.50
Nc1ccccc1C(=O)NC(=O)Nc1ccc(Oc2ncc(Br)cn2)c(Cl)c1 [NSC639828] | -42.32
CCc1cccc(C(C)C)c1NC(=O)/C(=N\NC(N)=O)C(C(=O)OC)c1cnc2ccccc2n1 (centres unmarked) [NSC642033] | -12.26
C[C@]12Cc3cnc(-c4ccccc4)nc3C[C@@H]1CC[C@@H]1[C@@H]2CC[C@@]2(C)[C@H]1CC[C@]2(C)O [NSC39863] | -20.27
COc1cc(C(C)c2cc3c(cc2OCCO)OCO3)cc(OC)c1OC (centres unmarked) [NSC352876] | -6.93
C1CCNCC1.S=C(S)N1CCCCC1 [NSC1906] | -58.60
CC(C)c1ccc2nc3ccc(C(=O)NCCN(C)C)cn3c(=O)c2c1 [NSC600305] | -31.37
CC1=NC(C(C)C)C(=O)O1 (centres unmarked) [NSC635968] | -7.14
C=C1C(=O)O[C@H]2/C=C(/CO)[C@H](OC(C)=O)C[C@H](O)/C(C)=C\[C@H](OC(=O)[C@@H](C)CC)[C@H]12 [NSC292663] | -63.04
O=C1C=C2C=CC3CC2(O1)C1CCCCN31 (centres unmarked) [NSC107415] | -39.15
C[C@H](CSC(=O)c1ccccc1)C(=O)N1c2ccccc2C[C@H]1C(=O)O [NSC604535] | -8.81
CSc1ccc(NC(=O)CCl)cc1 [NSC166464] | -7.16
O=C1c2ccccc2C(=O)c2sc(Nc3ccc(Cl)cc3)nc21 [NSC631529] | -18.60
Cc1ccc(C)c(NC(=O)C(=O)C(C(=O)c2ccc3ccccc3c2)C2OC(=O)c3ccccc32)c1 (centres unmarked) [NSC640985] | -66.15
CC1(C)C(O)OC(O)C1(C)C (centres unmarked) [NSC614928] | -7.87
OC(CN1CCCCC1)c1ccc(/C=C/c2ccc(Cl)cc2)cc1 (centres unmarked) [NSC26040] | -70.84
CCP(CC)CC.[Au+].[Cl-] [NSC313981] | -27.27
COc1cc(OC)c2c(C)cc(=O)oc2c1 [NSC688795] | -40.28
CC1=C[C@H]2O[C@@H]3[C@H](O)[C@@H](O)[C@](C)([C@@]2(CO)CC1)[C@]31CO1 [NSC269142] | -41.10

SMILES | MEAN CpLDH INHIBITION (%)
CN(C)c1ccc(/C=C2\CCc3ccccc3C2=O)cc1Br [NSC643162] | -31.17
Cc1ccc(/C=C2\CNC/C(=C\c3ccc(C)cc3)C2=O)cc1.Cl [NSC632839] | -15.78
CC1=C\C(O)CC(=O)Cc2nc(co2)C(=O)N2CCC=C2C(=O)OC(C(C)C)C(C)/C=C/C(=O)NC/C=C\1.CCC1NC(=O)C(NC(=O)c2ncccc2O)C(C)OC(=O)C(c2ccccc2)NC(=O)C2CC(=O)CCN2C(=O)C(Cc2ccc(N(C)C)cc2)N(C)C(=O)C2CCCN2C1=O (centres unmarked) [NSC125176] ({Picolinoyl(3-OH)}-T[Abu]P[ξNMePhe(4-NMe2)][ξPip(4-oxo)][Phg]; ester 1-C; configuration not given here) | -0.47
CC(=O)c1sc2[n+](c1C)C(=O)/C(=C\c1ccccc1Cl)S2 [NSC658285] | -36.39
Cc1cc(NC(=O)NC(=O)c2ccccc2NC(=O)CN)ccc1Oc1ncc(Br)cn1.Cl [NSC654259] | -46.44
CC(=O)O[C@@H]1C[C@H]2O[C@@H]3C=C(C)CC[C@]3(C)[C@]1(C)[C@]21CO1 [NSC267033] | -8.12
O=C(O)c1ccccc1-c1ccccc1C(=O)Nc1ccc2c(c1)Cc1ccccc1-2 [NSC67690] | -56.08
CC(=O)O[C@H]1C(=O)[C@@]2(C)[C@H]([C@H](OC(=O)c3ccccc3)[C@]3(O)C[C@H](O)C(C)=C1C3(C)C)[C@]1(OC(C)=O)CO[C@@H]1C[C@@H]2O [NSC330753] | -63.01
Cc1cc2cc3cc(C)c(N)cc3nc2cc1N.Cl [NSC13973] | -3.43
Cc1ccc(NC(=O)c2cccc([N+](=O)[O-])c2O)c([N+](=O)[O-])c1 [NSC82025] | -16.46
COC(=O)c1cc(-c2c[nH]cc2C(=O)OCc2ccccc2)cn1S(=O)(=O)c1ccc(C)cc1 [NSC679527] | -27.66
Br.CCCCCC(CN1CCOCC1)C(=O)/C=C/c1ccccc1 (centres unmarked) [NSC322069] | -28.89
COC(=O)[C@@H]1[C@H](O)[C@H](C)[C@H](O)[C@H](C)/C=C\C=C(/C)C(=O)Nc2c(C)c(OC(C)=O)c3c(c2O)C(=O)C(C)=C2OCOC(=C23)/C(C)=C/[C@@](C)(O)[C@H](O)[C@@H](C)[C@H]1OC(C)=O [NSC156215] | -35.58
Oc1ccc2ccccc2c1N=Nc1cccc2ccccc12 [NSC45575] | -10.08
CCOC(=O)NC(Nc1ccc(F)cc1)(C(=O)OCC)C(F)(F)F (centres unmarked) [NSC684845] | -7.56
COC(=O)C1=CC(=O)C(C(=O)Nc2ccc(OC)cc2)C(c2ccccc2)O1 (centres unmarked) [NSC634473] | -29.85
Cc1cc(Cl)ccc1N1C(=O)C(=O)C(c2nc3ccccc3o2)C(=O)C1=O [NSC623051] | -30.82
CCN(CC)CC.CCOc1ccc(NC(=O)N=C=[N-])cc1.[CH-]1CCCCC1.[CH-]1CCCCC1.[CH-]1CCCCC1.[Cl-].[Sn+4] [NSC353527] | -42.92
O=C(CC(=O)c1ccccc1)CC(O)(c1ccccc1)c1ccccc1 [NSC634232] | -33.26
Cl.O=C1c2cccc(NCCCNCCO)c2C(=O)c2cccc(NCCCNCCO)c21 [NSC363998] | -2.96
O=C1C=C(Nc2ccccc2C(=O)CC(=O)C(=O)Nc2ccc(Cl)c(Cl)c2)c2ccccc2C1=O [NSC641250] | -16.86
CN/N=C(\C)C(CN1CCCCC1)C(C1=C(O)c2ccccc2OC1)c1ccccc1.Cl (centres unmarked) [NSC647418] | -56.81
COc1ccc2c(c1)C=C([N+](=O)[O-])C(C1OC(C)(C)OC1C1COC(C)(C)O1)O2 (centres unmarked) [NSC618261] | -65.69
COc1ccc(-n2/c(=N/C(=S)N(C)C)ss/c2=N\C(=S)N(C)C)cc1 [NSC622586] | -55.77

SMILES | MEAN CpLDH INHIBITION (%)
CCOC(OCC)C(CC)[Se]c1ccccc1[N+](=O)[O-] (centres unmarked) [NSC646200] | -24.52
Cc1[nH]c(=O)nc(N/N=C/c2ccc(Cl)cc2)c1C(=O)Nc1ccc(Cl)cc1 [NSC624947] | -0.76
COC(=O)c1[nH]c(=S)[nH]c(=O)c1-c1ccc(Cl)cc1 [NSC635140] | -15.60
COC1CC(C)C(OC)c2cc(O)cc(c2O)NC(=O)/C(C)=C\C=C/C(C)C(OC(N)=O)/C(C)=C\C(C)C1OC (centres unmarked) [NSC330500] | -19.04
CCC12C[N+]3([O-])CCc4c([nH]c5ccccc45)C(C(=O)OC)(c4cc5c(cc4OC)N(C)C4C(O)(C(=O)OC)C(OC(C)=O)C6(CC)C=CCN7CCC54C76)CC(C3)C1O2 (centres unmarked) [NSC304421] | -126.27
C[C@]12CC[C@H](OC(=O)Cc3ccc(N(CCCl)CCCl)cc3)C[C@@H]1CC[C@@H]1[C@@H]2CC[C@]2(C)NC(=O)CC[C@@H]12 [NSC290205] | -205.36
Fc1cccc(Cl)c1C1SCc2nc3ccccc3n21 (centres unmarked) [NSC625483] | -18.24
Cc1cccc(Cl)c1NC(=O)/C=C/c1ccccc1 [NSC191393] | -10.83
O=[N+]([O-])c1cccc2nc3ccccc3c(NCCCNc3c4ccccc4nc4cccc([N+](=O)[O-])c34)c12 [NSC690634] | -61.23
COc1ccc(/C=C2\Cc3ccccc3C2=O)cc1OC [NSC643174] | -15.39
O=C(CCCN1CCC(C(O)c2ccc(F)cc2)CC1)c1ccc(F)cc1 (centres unmarked) [NSC343513] | -0.97
CCCCCCCCCCCCCCCCOCC(O)CO (centres unmarked) [NSC59269] | 0.04
O=C1C=C(N2CCNCC2)C(=O)c2c(O)ccc(O)c21 [NSC658144] | -3.51
COc1cc2c[n+](C)c3c4cc5c(cc4ccc3c2cc1OC)OCO5.[Cl-] [NSC146397] | -1.75
Cc1nc(-c2cccnc2)sc1C(=O)/C=C/c1ccc(Cl)cc1Cl [NSC640580] | -13.66
Cc1cccc(C)c1NC(=O)C(=O)C(c1ccccc1Cl)S(=O)(=O)Cc1ccccc1Cl (centres unmarked) [NSC657722] | -170.05
O=C1C(Cl)=C(N2CCN(C3=C(Cl)C(=O)c4ccccc4C3=O)CC2)C(=O)c2ccccc21 [NSC40341] | -22.69
Cn1cnc([N+](=O)[O-])c1Sc1nnnn1-c1ccccc1 [NSC631152] | -45.89
CC(C)CC(NC(=O)OCc1ccccc1)C(=O)NC(Cc1ccccc1)C(=O)CCl (stereo not drawn) [NSC173904] (Cbz-Leu-Phe-CH2Cl; configuration not given here) | -56.33
Cc1ccc(S(=O)(=O)c2ccccc2[N+](=O)[O-])cc1 [NSC627708] | -13.84
Cc1cc(N(CCOS(C)(=O)=O)CCOS(C)(=O)=O)ccc1C=Nc1ccc(-c2csc(-c3ccccc3)n2)c(Cl)c1 [NSC281613] | -15.80
COc1ccc(O)c2c(=O)c3c(OC)cc4c(c3oc12)[C@@H]1C=CO[C@@H]1O4 [NSC178249] | -31.06
CO[C@H]1Nc2c(ccc(C)c2O)C(=O)N2C=C(/C=C/C(N)=O)C[C@@H]12 [NSC106408] | -29.99
